Source: US11007128B2, “Composition for preventing or treating dental erosion” (MEDA OTC AB, priority 2014, dated 2021)

What was measured:
[1] = 0.15% HF at pH 2.58, 5 minutes at 37° C.; then 2% citric acid 15 minutes at 37° C.
Text: A low vacuum scanning electron microscope, JEOL JSM 6610 LV, was used for studying surfaces.
SEM pictures were taken with 5000 times magnification (SEM×5000).
A human ex vivo tooth (premolar) was received from a dentist practice. The tooth was stored in Ringer solution and kept in refrigerator.
The effect of the HF treatment on HA surfaces was verified using an ex vivo human premolar tooth. The tooth had been split into two halves before the experiment (tooth 1:1 and tooth 1:2). The two tooth halves were rinsed with distilled water. One tooth half was placed in a 50 ml plastic bottle containing 2% citric acid and then allowed to incubate at 37° C. for 15 minutes under gentle agitation. The tooth was then rinsed with distilled water for a few minutes and then put on tissue paper to dry. […] The tooth half was rinsed with distilled water and then immersed in 2% citric acid and then allowed to incubate at 37° C. for 15 minutes under gentle agitation. The tooth was then rinsed with distilled water and left to dry on tissue paper for a few minutes.

[2] = 0.2% HF solution, pH 2.0, ~0.1 mol/l F; sound enamel; cited from earlier work

## F [HF, hydrogen fluoride]
[1]
  SEM: protection of enamel from etching: clearly protected from etching
[2]
  duration of protective effect against citric acid attack: at least 1 week
